From patent US20090005435A1, “Novel Compounds, Pharmaceutical Compositions Containing Same, and Methods of Use for Same” (priority 2004, published 2009)
Several values for one entry are separate records, joined by “and”; a condition that tells them apart may be missing. Identical values can stand only once.

Columns and labels:
fatty acid oxidation = experiment: β-Oxidation assay, isolation of acid soluble products; assay type: cell-based; set-up: Beta Oxidation: unit not given here; settings: for FAO MAx: maximal fatty acid oxidation, at the concentration given under E32
Protocol: β-Oxidation Assay—Isolation of Acid Soluble Products A 24 well plate with 1 ml per well was prepared with 2.5×10^5 cells/well. The cells were incubated O/N. The next day, a solubilized palmitate solution was prepared. 50 μls of (1-^14C) Palmitic acid was added to a 2 ml centrifuge tube and dried under nitrogen gas. 2 mls of α-CD (α-Cyclodextran)-10 mg/ml in 10 mM Tris were added. This solution was incubated in a 37° C. water bath for 30 minutes. A hot mix was prepared by adding 25 μls of this solution to 2.5 μls of 200 μM Carnitine and 222.5 μls of serum free medium that is used for cells. The cells were then treated with the test compound in triplicate, and incubated at 37° C. for 60 minutes. The medium was removed and 250 μls of the hot mix were added. The test compound was added again, and further incubated at 37° C. for 60 minutes. The reaction was stopped with 50 μls of 2.6 N HClO4. The contents of the plate were transferred to a 1.5 ml centrifuge tube, and 50 μls of 4N KOH were then added, and the tube incubated in a 60° C. water bath for 30 min. Sodium acetate (1M, 75 μls) and sulfuric acid (3N, 50 μls) were added to the solution and vortexed. The tube was spun for 7 minutes at 1000 rpm at room temperature. A portion (225 μls) was removed, and the following were added (vortex after each addition, twice at the end): 938 μls of 1:1 Chloroform:Methanol; 468 μls of Chloroform; 281 μls distilled Water. The tubes were spun at 1000 rpm for 5 minutes. The upper phase was removed into a large glass scintillation vial and 5 mls of Budget solvent (scintillation liquid) was added. The tubes were well vortexed. Finally, C14 was counted for one minute.

[1] = test system: fatty acid synthesis in MCF-7 human breast cancer cells; experiment: [14C]acetate incorporation into total lipids; assay type: cell-based; settings: MCF-7 cells
Protocol: Measurement of [^14C]acetate Incorporation into Total Lipids and Determination of IC50 of Compounds
This assay measures the incorporation of [^14C]acetate into total lipids and is a measure of fatty acid synthesis pathway activity in vitro. It is utilized to measure inhibition of fatty acid synthesis in vitro.
MCF-7 human breast cancer cells cultured as above, are plated at 5×10^4 cells per well in 24-well plates. Following overnight incubation, the compounds to be tested, solubilized in DMSO, are added at 5, 10, and 20 μg/ml in triplicate, with lower concentrations tested if necessary. DMSO is added to triplicate wells for a vehicle control. C75 is run at 5 and 10 μg/ml in triplicate as positive controls. After 4 hours of incubation, 0.25 μCi of [^14C]acetate (10 μl volume) is added to each well.
After 2 hours of additional incubation, medium is aspirated from the wells and 800 μl of chloroform:methanol (2:1) and 700 μl of 4 mM MgCl2 is added to each well. Contents of each well are transferred to 1.5 Eppendorf tubes, and spun at full-speed for 2 minutes in a high-speed Eppendorf Microcentrifuge 5415D. After removal of the aqueous (upper) layer, an additional 700 μl of chloroform:methanol (2:1) and 500 μl of 4 mM MgCl2 are added to each tube and then centrifuged for 1 minutes as above. […] Once dried, 3 ml of scintillant (APB #NBC5104) is added and vials are counted for ^14C. […]

Weight loss screen = assay type: in vivo, Balb/C mice; settings: 60 mg/kg
Protocol: Weight Loss Screen for Novel FAS Inhibitors Balb/C mice (Jackson Labs) are utilized for the initial weight loss screening. Animals are housed in temperature and 12 hour day/night cycle rooms and fed mouse chow and water ad lib. Three mice are utilized for each compound tested with vehicle controls in triplicate per experiment. For the experiments, mice are housed separately for each compound tested three mice to a cage. Compounds are diluted in DMSO at 10 mg/ml and mice are injected intraperitoneally with 60 mg/kg in approximately 100 μl of DMSO or with vehicle alone. Mice are observed and weighed daily; average weights and standard errors are computed with Excel (Microsoft). The experiment continues until treated animals reach their pretreatment weights. Select compounds are tested in animals housed in metabolic cages. Dosing of animals are identical to the screening experiments with three animals to a single metabolic cage. Animal weights, water and food consumption, and urine and feces production are measured daily.

Row | SMILES | Beta Oxidation (fatty acid oxidation; 1.25 ug/ml) | Beta Oxidation (fatty acid oxidation; 2.5 ug/ml) | Beta Oxidation (fatty acid oxidation; 5 ug/ml) | Beta Oxidation (fatty acid oxidation; 10 ug/ml) | Beta Oxidation (fatty acid oxidation; 20 ug/ml) | Beta Oxidation (fatty acid oxidation; 40 ug/ml) | 14C (IC50) [1] | Weight Loss (Weight loss screen; day 1) | FAO MAx, concentration at maximum (fatty acid oxidation) [µg/mL] | FAO SC 150 (fatty acid oxidation) [µg/mL] | Beta Oxidation (fatty acid oxidation; 0.097 ug/ml) | Beta Oxidation (fatty acid oxidation; 0.39 ug/ml) | Beta Oxidation (fatty acid oxidation; 1.56 ug/ml) | Beta Oxidation (fatty acid oxidation; 6.25 ug/ml) | Beta Oxidation (fatty acid oxidation; 25 ug/ml) | Beta Oxidation (fatty acid oxidation; 100 ug/ml) | FAO MAx (fatty acid oxidation) [%] | Weight Loss (Weight loss screen; day 2)
1 | C=CCC1(CC=C)C(=O)SC(C)(CCCCCCCC)C1=O (racemic) [Compound 4, 3,3-Diallyl-5-methyl-5-octyl-thiophene-2,4-dione] | 94 and 151 | 114 and 163 | 120 and 154 and 177 | 163 and 177 and 184 | 147 | 101 | Neg | 7.9% and 8.0% and 6.8% | – | – | – | – | – | – | – | – | – | –
2 | CCCCCCCCCCC1(C)SC(=O)C(C)(C)C1=O (stereo not shown) [Compound 12, 3,3,5-Trimethyl-5-decyl-thiophene-2,4-dione] | – | – | – | – | – | – | – | – | 1.56 | 1.4 | 100 | 120 | 154 | 141 | 75 | 68 | 154 | 60 mg/kg: 9.0% (day 2)
3 | C=CCC1(CC=C)C(=O)SC(C)(CCCCCCCCCC)C1=O (stereo not shown) [Compound 15, 3,3-Diallyl-5-methyl-5-decyl-thiophene-2,4-dione] | – | – | – | – | – | – | – | – | 25 | 16.0 | 105 | 114 | 127 | 138 | 165 | 150 | 165 | 60 mg/kg: 3.5% (day 2)
